Data as given in ChEMBL document CHEMBL5053556, “Design, Synthesis, and Biological Evaluation of a Novel Series of Teriflunomide Derivatives as Potent Human Dihydroorotate Dehydrogenase Inhibitors for Malignancy Treatment” (J Med Chem, 2021).

Columns and labels:
[1] = biological target: T1, Dihydroorotate dehydrogenase (quinone), mitochondrial (Homo sapiens, UniProt Q02127)
Description: Inhibition of human DHODH using dihydroorotate substrate preincubated for 30 mins followed by substrate addition by DCIP based microplate reader analysis

[2] = system: L02; assay: cells; assay type: ADME, cell-based; settings: Homo sapiens, L02, 96 h
Description: Cytotoxicity against human L02 cells assessed as cell growth inhibition incubated for 96 hrs by MTT assay

[3] = system: Raji; assay: Induction of cell cycle arrest in human Raji cells assessed as accumulation of cells at S phase at 0.125 uM after 24 hrs by propidium iodide staining based flow cytometric analysis (reference value: 45.7%); assay type: functional
[4] = system: Raji; assay: Induction of cell cycle arrest in human Raji cells assessed as accumulation of cells at S phase at 0.25 uM after 24 hrs by propidium iodide staining based flow cytometric analysis (reference value: 45.7%); assay type: functional
[5] = system: Raji; assay: Induction of cell cycle arrest in human Raji cells assessed as accumulation of cells at S phase at 0.5 uM after 24 hrs by propidium iodide staining based flow cytometric analysis (reference value: 45.7%); assay type: functional
[6] = system: Raji; assay: Antiproliferative activity against human Raji cells assessed as cell growth inhibition at 0.1 uM incubated for 96 hrs by MTT assay; assay type: functional; design: scale not given: the % may be the effect or the level left
[7] = system: Raji; assay: Antiproliferative activity against human Raji cells assessed as cell growth inhibition at 0.2 uM incubated for 96 hrs by MTT assay; assay type: functional; design: scale not given: the % may be the effect or the level left
[8] = system: Raji; assay: Antiproliferative activity against human Raji cells assessed as cell growth inhibition at 0.4 uM incubated for 96 hrs by MTT assay; assay type: functional; design: scale not given: the % may be the effect or the level left
[9] = system: Raji; assay: Antiproliferative activity against human Raji cells assessed as cell growth inhibition at 0.06 uM preincubated with uridine for 24 hrs followed by compound addition and measured after 72 hrs by MTT assay; assay type: functional; design: scale not given: the % may be the effect or the level left
[10] = system: Raji; assay: Antiproliferative activity against human Raji cells assessed as cell growth inhibition at 0.1 uM preincubated with uridine for 24 hrs followed by compound addition and measured after 72 hrs by MTT assay; assay type: functional; design: scale not given: the % may be the effect or the level left
[11] = system: Raji; assay: Antiproliferative activity against human Raji cells assessed as cell growth inhibition at 0.4 uM preincubated with uridine for 24 hrs followed by compound addition and measured after 72 hrs by MTT assay; assay type: functional; design: scale not given: the % may be the effect or the level left
[12] = Plasma protein binding in rat at 0.1 uM incubated for 5 hrs by LC-MS analysis; assay type: ADME, cell-free; settings: read-out: PPB (converted)
[13] = Plasma protein binding in rat at 1 uM incubated for 5 hrs by LC-MS analysis; assay type: ADME, cell-free; settings: read-out: PPB (converted)
[14] = Microsomal stability in human liver microsomes assessed as half life at 1 uM measured upto 120 mins in presence of NADPH by LC-MS analysis; assay type: ADME, Microsome
[15] = Microsomal stability in rat liver microsomes assessed as half life at 1 uM measured upto 120 mins in presence of NADPH by LC-MS analysis; assay type: ADME, Microsome
[16] = Microsomal stability in mouse liver microsomes assessed as half life at 1 uM measured upto 120 mins in presence of NADPH by LC-MS analysis; assay type: ADME, Microsome
[17] = Tmax in Sprague-Dawley rat at 15 mg/kg, po measured after 48 hrs by LC-MS analysis; assay type: ADME, organism-based; settings: in vivo
[18] = Half life in Sprague-Dawley rat at 15 mg/kg, po measured after 48 hrs by LC-MS analysis; assay type: ADME, organism-based; settings: in vivo
[19] = Clearance in Sprague-Dawley rat at 5 mg/kg, iv measured after 48 hrs by LC-MS analysis; assay type: ADME, organism-based; settings: in vivo, iv, 5 mg/kg, 48 h
[20] = Clearance in Sprague-Dawley rat at 15 mg/kg, po measured after 48 hrs by LC-MS analysis; assay type: ADME, organism-based; settings: in vivo
[21] = AUC(0 to t) in Sprague-Dawley rat at 5 mg/kg, iv measured after 48 hrs by LC-MS analysis; assay type: ADME, organism-based; design: time 48 hrs, dose 5 mg/kg, route iv; settings: in vivo, 48 h
[22] = Oral bioavailability in Sprague-Dawley rat at 15 mg/kg measured after 48 hrs by LC-MS analysis; assay type: ADME, organism-based; settings: in vivo
[23] = Acute toxicity in BALB/c mouse assessed change in behavior at 400 mg/kg, po; assay type: organism-based; settings: in vivo
[24] = Acute toxicity in BALB/c mouse assessed effect on feeding at 400 mg/kg, po; assay type: organism-based; settings: in vivo
[25] = system: THP-1; assay: Antiproliferative activity against human THP-1 cells assessed as cell growth inhibition incubated for 96 hrs by MTT assay; assay type: functional, cell-based; settings: THP-1, 96 h
[26] = system: MV4-11; assay: Antiproliferative activity against human MV4-11 cells assessed as cell growth inhibition incubated for 96 hrs by MTT assay; assay type: functional, cell-based; settings: MV4-11, 96 h
[27] = system: HL-60; assay: Antiproliferative activity against human HL-60 cells assessed as cell growth inhibition incubated for 96 hrs by MTT assay; assay type: functional, cell-based; settings: HL-60, 96 h
[28] = system: SUD4; assay: Antiproliferative activity against human SU-DHL-4 cells assessed as cell growth inhibition incubated for 96 hrs by MTT assay; assay type: functional, cell-based; settings: SU-DHL-4, 96 h
[29] = system: SU-DHL-6; assay: Antiproliferative activity against human SU-DHL-6 cells assessed as cell growth inhibition incubated for 96 hrs by MTT assay; assay type: functional, cell-based; settings: SU-DHL-6, 96 h
[30] = system: Daudi; assay: Antiproliferative activity against human Daudi cells assessed as cell growth inhibition incubated for 96 hrs by MTT assay; assay type: functional, cell-based
[31] = system: Mus musculus; assay: Toxicity in NOD-SCID mouse xenografted with human Raji cells assessed as change in ALT level at 40 mg/kg, po administered for 25 days; assay type: organism-based; settings: in vivo, 600 h, time 25 day
[32] = system: Mus musculus; assay: Toxicity in NOD-SCID mouse xenografted with human Raji cells assessed as change in AST level at 40 mg/kg, po administered for 25 days; assay type: organism-based; settings: in vivo, 600 h, time 25 day
[33] = system: Mus musculus; assay: Toxicity in NOD-SCID mouse xenografted with human Raji cells assessed as change in uric acid level at 40 mg/kg, po administered for 25 days; assay type: organism-based; settings: in vivo, 600 h, time 25 day
[34] = system: Mus musculus; assay: Toxicity in NOD-SCID mouse xenografted with human Raji cells assessed as change in UREAL at 40 mg/kg, po administered for 25 days; assay type: organism-based; settings: in vivo, 600 h, time 25 day
[35] = system: Raji; assay: Antitumor activity against human Raji cells xenografted in NOD-SCID mouse assessed as tumor growth inhibition at 15 mg/kg, po administered for 25 days; assay type: functional; settings: 600 h, time 25 day, read-out: TGI
[36] = Drug distribution in NOD-SCID mouse kidney at 40 mg/kg, po administered for 25 days by LC-MS analysis; assay type: ADME, organism-based; settings: in vivo, 600 h, time 25 day
[37] = Drug distribution in NOD-SCID mouse tumor at 40 mg/kg, po administered for 25 days by LC-MS analysis; assay type: ADME, organism-based, Neoplasm; settings: in vivo, 600 h, time 25 day
[38] = Acute toxicity in BALB/c mouse assessed as effect on liver at 400 mg/kg, po measured on day 14 by H and E staining based assay; assay type: organism-based; settings: in vivo, 336 h, time 14 day
[39] = Acute toxicity in BALB/c mouse assessed as effect on lung at 400 mg/kg, po measured on day 14 by H and E staining based assay; assay type: organism-based; settings: in vivo, 336 h, time 14 day
[40] = Acute toxicity in BALB/c mouse assessed as effect on kidney at 400 mg/kg, po measured on day 14 by H and E staining based assay; assay type: organism-based; settings: in vivo, 336 h, time 14 day
[41] = Acute toxicity in BALB/c mouse assessed as effect on spleen at 400 mg/kg, po measured on day 14 by H and E staining based assay; assay type: organism-based; settings: in vivo, 336 h, time 14 day
[42] = biological target: T1, Dihydroorotate dehydrogenase (quinone), mitochondrial; settings: dose 100.0 nM, time 30.0 min

T1 sequence (Q02127 whole entry): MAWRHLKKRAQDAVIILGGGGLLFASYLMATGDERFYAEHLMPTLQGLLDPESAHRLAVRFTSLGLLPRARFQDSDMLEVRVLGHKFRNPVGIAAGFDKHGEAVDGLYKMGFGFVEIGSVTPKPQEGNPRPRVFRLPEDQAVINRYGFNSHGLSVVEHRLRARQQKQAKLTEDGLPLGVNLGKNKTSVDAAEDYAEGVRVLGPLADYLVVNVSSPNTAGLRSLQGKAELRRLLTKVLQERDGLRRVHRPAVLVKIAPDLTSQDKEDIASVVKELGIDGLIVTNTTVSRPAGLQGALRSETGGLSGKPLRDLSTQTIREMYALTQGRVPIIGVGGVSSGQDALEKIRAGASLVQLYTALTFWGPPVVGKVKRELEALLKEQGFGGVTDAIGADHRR

C/C(O)=C(\C#N)C(=O)Nc1cc(O[C@@H](C)C(F)(F)F)c(C(=O)Nc2c(F)cccc2F)cc1F showed an IC50 [1] of 16 nM, an IC50 [2] of 518 nM and an Activity [3] of 64.4%. It also gave an Activity [4] of 70.3%, an Activity [5] of 86.9% and an Activity [6] of 43.1%. For the same molecule, the Activity [7] was 58.7%, the Activity [8] was 64.5% and the Activity [9] was 3.3%. It also gave an Activity [10] of 6.2%, an Activity [11] of 21.3% and a fraction unbound at 5 h, 0.1 µM [12] of 0.099. It also gave a fraction unbound at 5 h, 1 µM [13] of 0.014, a half-life at 1 µM [14] of 1390 min and a half-life at 1 µM [15] of 85.6 min. For the same molecule, the half-life at 1 µM [16] was 495 min, the Tmax [17] was 18 h and the half-life [18] was 606 min. The CL [19] was 0.6 L/h/kg, the CL/F [20] was 10 mL/min/kg and the AUCt [21] was 31.644 µg·h/mL. The bioavailability [22] was 31.1%, the Activity [23] was “Non-Toxic” and the Activity [24] was “Non-Toxic”. It also gave an IC50 [25] of 20 nM, an IC50 [26] of 20 nM and an IC50 [27] of 20 nM. For the same molecule, the IC50 [28] was 20 nM, the IC50 [29] was 20 nM and the IC50 [30] was 20 nM. The Activity [31] was “Non-Toxic”, the Activity [32] was “Non-Toxic” and the Activity [33] was “Non-Toxic”. For the same molecule, the Activity [34] was “Non-Toxic”, the inhibition in vivo at 15 mg/kg [35] was 72.2% and the Drug uptake [36] was “Active”. The Drug uptake [37] was “Active”, the Activity [38] was “Non-Toxic” and the Activity [39] was “Non-Toxic”. For the same molecule, the Activity [40] was “Non-Toxic”, the Activity [41] was “Non-Toxic” and the inhibition [42] was 88.9%.
